Consider four compounds from the NIST ThermoML archive (doi:10.1021/je050029o).

Numbers after ± are expanded uncertainties.

In general, mass density refers to the mass of a sample divided by its volume.

For the series the following is noted: 298.15 K; 101.33 kPa; Liquid; Pycnometric method.
As to `COC(C)(C)C` [2-methoxy-2-methylpropane], the mass density was found to be 740.6 ± 1.7 kg/m3.

Consider `CCCCCCC` [heptane], for which the mass density is recorded as 679.5 ± 0.6 kg/m3.

As for `CO` [methanol], the mass density turned out to be 786.8 ± 0.7 kg/m3.

For `CC1CCCCC1` [methylcyclohexane], the mass density stood at 765.2 ± 0.7 kg/m3.
